Organism: Rattus norvegicus
Assay: DrugMatrix - Regimen: Daily Repeat
Format: toxicity, organism-based, Sprague-Dawley
Set-up: regimen Daily Repeat, gender Male, age 6-8 weeks
Settings: in vivo, po, route oral GAVAGE, vehicle 100 % WATER; for ABSOLUTE BASOPHIL / ABSOLUTE EOSINOPHIL / ABSOLUTE MONOCYTE / ABSOLUTE SEGMENTED NEUTROPHIL / BASOPHIL / EOSINOPHIL / ERYTHROCYTE COUNT / HEMATOCRIT / LEUKOCYTE COUNT / LYMPHOCYTE / MEAN CORPUSCULAR HEMOGLOBIN / MEAN CORPUSCULAR HEMOGLOBIN CONCENTRATION / MEAN CORPUSCULAR VOLUME / MONOCYTE / NEUTROPHIL / NUCLEATED RED BLOOD CELLS / PLATELET COUNT / ABSOLUTE LYMPHOCYTE / HEMOGLOBIN: tissue Blood
[1] = 0 mg/kg, 72 h, dose level Control, time 3 day
[2] = 0 mg/kg, 72 h, tissue Plasma, dose level Control, time 3 day
[3] = 0 mg/kg, 120 h, dose level Control, time 5 day
[4] = 0 mg/kg, 120 h, tissue Plasma, dose level Control, time 5 day
[5] = 1 mg/kg, 72 h, dose level Low, time 3 day
[6] = 1 mg/kg, 72 h, tissue Plasma, dose level Low, time 3 day
[7] = 1 mg/kg, 120 h, dose level Low, time 5 day
[8] = 1 mg/kg, 120 h, tissue Plasma, dose level Low, time 5 day
[9] = 10 mg/kg, 72 h, dose level High, time 3 day
[10] = 10 mg/kg, 72 h, tissue Plasma, dose level High, time 3 day
[11] = 10 mg/kg, 120 h, dose level High, time 5 day
[12] = 10 mg/kg, 120 h, tissue Plasma, dose level High, time 5 day

## THIMEROSAL
[1]
  ABSOLUTE BASOPHIL: 0 CELLS/uL
  ABSOLUTE EOSINOPHIL: 123.17 CELLS/uL
  ABSOLUTE MONOCYTE: 66.17 CELLS/uL
  ABSOLUTE SEGMENTED NEUTROPHIL: 1149.5 CELLS/uL
  BASOPHIL: 0%
  EOSINOPHIL: 0.83%
  ERYTHROCYTE COUNT: 5.26 x10E6/uL
  HEMATOCRIT: 33.07%
  LEUKOCYTE COUNT: 14.02 x10E3/uL
  LYMPHOCYTE: 90.17%
  MEAN CORPUSCULAR HEMOGLOBIN: 25.62 pg
  MEAN CORPUSCULAR HEMOGLOBIN CONCENTRATION: 40.65 G/DL
  MEAN CORPUSCULAR VOLUME: 63 fL
  MONOCYTE: 0.5%
  NEUTROPHIL: 8.5%
  NUCLEATED RED BLOOD CELLS: 0.17 /100WBC
  PLATELET COUNT: 1142.83 x10E3/uL
[2]
  ALANINE AMINOTRANSFERASE: 45.17 u/L
  ALKALINE PHOSPHATASE: 340.17 u/L
  ASPARTATE AMINOTRANSFERASE: 77.33 u/L
  BLOOD UREA NITROGEN: 14.67 mg/dL
  CREATINE PHOSPHOKINASE: 263.67 u/L
  CREATININE: 0.15 mg/dL
  LACTATE DEHYDROGENASE: 230 u/L
  PHOSPHORUS: 11.8 mg/dL
  POTASSIUM: 5.91 MEQ/L
  TOTAL BILIRUBIN: 0.22 mg/dL
  TOTAL PROTEIN: 5.7 G/DL
  URIC ACID: 1.35 mg/dL
[3]
  ABSOLUTE BASOPHIL: 0 CELLS/uL
  ABSOLUTE EOSINOPHIL: 125 CELLS/uL
  ABSOLUTE LYMPHOCYTE: 13809 CELLS/uL
  ABSOLUTE MONOCYTE: 351 CELLS/uL
  ABSOLUTE SEGMENTED NEUTROPHIL: 1581.67 CELLS/uL
  BASOPHIL: 0%
  EOSINOPHIL: 0.67%
  ERYTHROCYTE COUNT: 5.53 x10E6/uL
  HEMATOCRIT: 34.83%
  LEUKOCYTE COUNT: 15.87 x10E3/uL
  LYMPHOCYTE: 87.5%
  MEAN CORPUSCULAR HEMOGLOBIN: 25.25 pg
  MEAN CORPUSCULAR HEMOGLOBIN CONCENTRATION: 40.08 G/DL
  MEAN CORPUSCULAR VOLUME: 63.05 fL
  MONOCYTE: 2.17%
  NEUTROPHIL: 9.67%
  NUCLEATED RED BLOOD CELLS: 0 /100WBC
  PLATELET COUNT: 1044 x10E3/uL
[4]
  ALANINE AMINOTRANSFERASE: 50.67 u/L
  ALKALINE PHOSPHATASE: 395 u/L
  ASPARTATE AMINOTRANSFERASE: 86 u/L
  CARBON DIOXIDE: 29.33 mmol/L
  CHOLESTEROL: 71.33 mg/dL
  CREATINE PHOSPHOKINASE: 323.17 u/L
  CREATININE: 0.18 mg/dL
  LACTATE DEHYDROGENASE: 389.5 u/L
  LIPASE: 9.83 u/L
  PHOSPHORUS: 11.35 mg/dL
  POTASSIUM: 6.39 MEQ/L
  TOTAL BILIRUBIN: 0.18 mg/dL
  TOTAL PROTEIN: 6.1 G/DL
  URIC ACID: 1.52 mg/dL
[5]
  ABSOLUTE BASOPHIL: 0 CELLS/uL
  ABSOLUTE EOSINOPHIL: 68 CELLS/uL
  ABSOLUTE LYMPHOCYTE: 13921 CELLS/uL
  ABSOLUTE MONOCYTE: 100.67 CELLS/uL
  ABSOLUTE SEGMENTED NEUTROPHIL: 710.33 CELLS/uL
  BASOPHIL: 0%
  EOSINOPHIL: 0.33%
  ERYTHROCYTE COUNT: 5.23 x10E6/uL
  HEMATOCRIT: 33.4%
  HEMOGLOBIN: 13.6 G/DL
  LEUKOCYTE COUNT: 14.8 x10E3/uL
  LYMPHOCYTE: 94.33%
  MEAN CORPUSCULAR HEMOGLOBIN: 26.03 pg
  MEAN CORPUSCULAR HEMOGLOBIN CONCENTRATION: 40.73 G/DL
  MEAN CORPUSCULAR VOLUME: 63.97 fL
  MONOCYTE: 0.67%
  NEUTROPHIL: 4.67%
  NUCLEATED RED BLOOD CELLS: 0 /100WBC
  PLATELET COUNT: 1138.67 x10E3/uL
[6]
  ALANINE AMINOTRANSFERASE: 49 u/L
  ALKALINE PHOSPHATASE: 344.33 u/L
  ASPARTATE AMINOTRANSFERASE: 77 u/L
  BLOOD UREA NITROGEN: 12.33 mg/dL
  CHLORIDE: 100 MEQ/L
  CHOLESTEROL: 82.33 mg/dL
  CREATINE PHOSPHOKINASE: 236.33 u/L
  CREATININE: 0.13 mg/dL
  GLUCOSE: 155 mg/dL
  LACTATE DEHYDROGENASE: 196.33 u/L
  PHOSPHORUS: 11.57 mg/dL
  POTASSIUM: 6.96 MEQ/L
  TOTAL BILIRUBIN: 0.2 mg/dL
  TOTAL PROTEIN: 5.73 G/DL
[7]
  ABSOLUTE BASOPHIL: 0 CELLS/uL
  ABSOLUTE EOSINOPHIL: 50.33 CELLS/uL
  ABSOLUTE MONOCYTE: 268.67 CELLS/uL
  ABSOLUTE SEGMENTED NEUTROPHIL: 1091 CELLS/uL
  BASOPHIL: 0%
  EOSINOPHIL: 0.33%
  ERYTHROCYTE COUNT: 5.58 x10E6/uL
  HEMATOCRIT: 35.07%
  LEUKOCYTE COUNT: 11.73 x10E3/uL
  LYMPHOCYTE: 88%
  MEAN CORPUSCULAR HEMOGLOBIN: 25.23 pg
  MEAN CORPUSCULAR HEMOGLOBIN CONCENTRATION: 40.13 G/DL
  NUCLEATED RED BLOOD CELLS: 0 /100WBC
  PLATELET COUNT: 1316.33 x10E3/uL
[8]
  ALANINE AMINOTRANSFERASE: 43.33 u/L
  ALKALINE PHOSPHATASE: 369 u/L
  ASPARTATE AMINOTRANSFERASE: 83.33 u/L
  BLOOD UREA NITROGEN: 15.67 mg/dL
  CARBON DIOXIDE: 30.33 mmol/L
  CHOLESTEROL: 67.33 mg/dL
  CREATINE PHOSPHOKINASE: 227.33 u/L
  CREATININE: 0.2 mg/dL
  GLUCOSE: 177.33 mg/dL
  LACTATE DEHYDROGENASE: 246 u/L
  LIPASE: 10 u/L
  PHOSPHORUS: 11.2 mg/dL
  POTASSIUM: 6.65 MEQ/L
  TOTAL BILIRUBIN: 0.27 mg/dL
  TOTAL PROTEIN: 5.93 G/DL
  URIC ACID: 1.4 mg/dL
[9]
  ABSOLUTE BASOPHIL: 0 CELLS/uL
  ABSOLUTE EOSINOPHIL: 0 CELLS/uL
  ABSOLUTE MONOCYTE: 196.33 CELLS/uL
  ABSOLUTE SEGMENTED NEUTROPHIL: 1492 CELLS/uL
  BASOPHIL: 0%
  EOSINOPHIL: 0%
  ERYTHROCYTE COUNT: 5.18 x10E6/uL
  HEMATOCRIT: 33.3%
  HEMOGLOBIN: 13.3 G/DL
  LEUKOCYTE COUNT: 14.17 x10E3/uL
  LYMPHOCYTE: 88.67%
  MEAN CORPUSCULAR HEMOGLOBIN: 25.73 pg
  MEAN CORPUSCULAR HEMOGLOBIN CONCENTRATION: 39.93 G/DL
  NEUTROPHIL: 10%
  NUCLEATED RED BLOOD CELLS: 0.33 /100WBC
  PLATELET COUNT: 1209 x10E3/uL
[10]
  ALANINE AMINOTRANSFERASE: 54.33 u/L
  ALBUMIN: 3.7 G/DL
  ALKALINE PHOSPHATASE: 440.67 u/L
  ASPARTATE AMINOTRANSFERASE: 82.67 u/L
  BLOOD UREA NITROGEN: 15 mg/dL
  CARBON DIOXIDE: 30 mmol/L
  CHOLESTEROL: 107.67 mg/dL
  CREATINE PHOSPHOKINASE: 183.33 u/L
  CREATININE: 0.16 mg/dL
  LACTATE DEHYDROGENASE: 137 u/L
  PHOSPHORUS: 11 mg/dL
  POTASSIUM: 6.64 MEQ/L
  TOTAL BILIRUBIN: 0.2 mg/dL
  TOTAL PROTEIN: 5.57 G/DL
[11]
  ABSOLUTE BASOPHIL: 0 CELLS/uL
  ABSOLUTE EOSINOPHIL: 0 CELLS/uL
  ABSOLUTE LYMPHOCYTE: 10043.33 CELLS/uL
  ABSOLUTE MONOCYTE: 291.67 CELLS/uL
  ABSOLUTE SEGMENTED NEUTROPHIL: 1665 CELLS/uL
  BASOPHIL: 0%
  EOSINOPHIL: 0%
  ERYTHROCYTE COUNT: 6.38 x10E6/uL
  HEMATOCRIT: 39.67%
  HEMOGLOBIN: 15.6 G/DL
  LEUKOCYTE COUNT: 12 x10E3/uL
  LYMPHOCYTE: 84.67%
  MEAN CORPUSCULAR HEMOGLOBIN: 24.57 pg
  NEUTROPHIL: 13%
  NUCLEATED RED BLOOD CELLS: 0 /100WBC
  PLATELET COUNT: 1253 x10E3/uL
[12]
  ALANINE AMINOTRANSFERASE: 56.33 u/L
  ALKALINE PHOSPHATASE: 463.67 u/L
  ASPARTATE AMINOTRANSFERASE: 83.67 u/L
  BLOOD UREA NITROGEN: 15.67 mg/dL
  CHOLESTEROL: 116.33 mg/dL
  CREATINE PHOSPHOKINASE: 208.33 u/L
  CREATININE: 0.22 mg/dL
  GLUCOSE: 156 mg/dL
  LACTATE DEHYDROGENASE: 176.33 u/L
  PHOSPHORUS: 10.43 mg/dL
  POTASSIUM: 6.38 MEQ/L
  TOTAL BILIRUBIN: 0.1 mg/dL
  TOTAL PROTEIN: 6 G/DL
  URIC ACID: 1.63 mg/dL

Source: ChEMBL document CHEMBL3885881, “DrugMatrix”
